Assay results as given in publication PMC11472313, “Development of Fragment-Based Inhibitors of the Bacterial Deacetylase LpxC with Low Nanomolar Activity” (Journal of Medicinal Chemistry, 2024).
Converted amounts (≈) assume the structure as drawn. “And” between values parts separate entries of the source, which are not always exact repeats. Identical values can stand only once.

Assays:
E. coli D22 [1] = assay: disc diffusion assay; type: cell-based; details: 0.15 μmol per 6 mm disc
Protocol: (§1) Besides measuring the inhibitory activities toward E. coli LpxC C63A, the antibacterial activities of the synthesized hydroxamic acids were evaluated by determining their minimal inhibitory concentrations (MIC) in broth dilution tests as well as by performing disc diffusion assays (Table 1).
(§2) The disc diffusion assays against E. coli BL21(DE3) and the defective strain E. coli D22 were performed as follows: liquid cultures of the bacteria were grown overnight in lysogeny broth (LB)[73] at 37 °C and 200 rpm. 150 μL of an overnight cell suspension was spread evenly onto LB agar plates. 0.15 μmol of each compound (dissolved in 10 or 15 μL DMSO) were applied onto circular filter paper (Ø = 6 mm, Cytiva). Pure DMSO, serving as a negative control, and CHIR-090, serving as a positive control, were also spotted. The agar plates were incubated overnight at 37 °C, and the diameter of the zone of growth inhibition was measured for each compound. Each assay was performed at least three times on separate days.

E. coli BL21(DE3) [2] = assay: disc diffusion assay; type: cell-based; details: 0.15 μmol per 6 mm disc
Protocol: as §1, §2

E. coli D22 [3] = assay: MIC, broth microdilution; type: cell-based; details: Escherichia coli, 20 h, 37 °C, LB
Protocol: as §1
(§3) The MIC values of the compounds were determined by means of the microdilution method using 96-well plates.
(§4) The overnight suspension was diluted 1:1000 in fresh LB. 10 μL of a 2-fold dilution series of the compounds in DMSO and 90 μL of LB were dispensed to each well of a 96-well plate. Then, 100 μL of the inoculated medium was added, resulting in 5 × 10^5 cfu mL^–1, 5% DMSO, and a final concentration range of the test compounds between 64 and 0.016 μg mL^–1. The plates were incubated for 20 h at 37 °C. The MIC was defined as the lowest concentration of the compounds that prevented visible growth after incubation. Each assay was performed at least three times on separate days.

E. coli BL21(DE3) [4] = assay: MIC, broth microdilution; type: cell-based; details: 20 h, 37 °C, LB; for MIC: Escherichia coli
Protocol: as §1, §3, §4

LasB = target: T1, LasB (Pseudomonas aeruginosa, UniProt Q02RJ6); assay: FRET-based LasB in vitro inhibition assay; type: biochemical, P. aeruginosa PA14; details: for inhibition at 20 µM: read-out: LasB Inhibition at 20 μM
T1 construct: The elastase LasB of P. aeruginosa is a secreted metalloprotease; endogenous in cells; host or cells: P. aeruginosa PA14 culture supernatant
T1 sequence (Q02RJ6 198-498): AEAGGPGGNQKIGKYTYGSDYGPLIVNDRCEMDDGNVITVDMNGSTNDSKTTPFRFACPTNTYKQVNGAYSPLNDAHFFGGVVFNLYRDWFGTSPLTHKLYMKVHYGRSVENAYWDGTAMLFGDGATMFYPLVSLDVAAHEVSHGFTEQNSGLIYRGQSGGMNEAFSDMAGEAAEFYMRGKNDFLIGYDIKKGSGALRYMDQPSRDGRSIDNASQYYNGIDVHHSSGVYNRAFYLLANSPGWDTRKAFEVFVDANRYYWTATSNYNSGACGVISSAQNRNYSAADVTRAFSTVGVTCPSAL
Protocol: Purification of LasB from P. aeruginosa PA14 supernatant and the subsequent performance of the FRET-based in vitro inhibition assay was performed as described previously.[66] The TACE (ADAM-17) inhibitor screening kit was purchased from Sigma-Aldrich (Saint Louis, MO). MMPs 1–3 along with the SensoLyte 520 Generic MMP Activity Kit Fluorimetric were purchased from AnaSpec (Fremont, CA, USA). The assays were performed according to the guidelines of the respective manufacturer. Fluorescence signals were measured using a CLARIOstar plate reader (BMG Labtech, Ortenberg, Germany).

E. coli LpxC C63A = target: T2, E. coli LpxC C63A (Escherichia coli, UniProt P0A725, C63A); assay: fluorescence-based E. coli LpxC C63A enzyme inhibition assay; type: biochemical; details: for fold higher LpxC inhibitory activity than its enantiomer (eudysmic ratio): E. coli LpxC C63A, (S) versus (R); for Ki: Ki E. coli LpxC C63A, from IC50 via Cheng–Prusoff
T2 construct: made in house; host or cells: E. coli BL21(DE3)
T2 sequence (P0A725 whole entry C63A): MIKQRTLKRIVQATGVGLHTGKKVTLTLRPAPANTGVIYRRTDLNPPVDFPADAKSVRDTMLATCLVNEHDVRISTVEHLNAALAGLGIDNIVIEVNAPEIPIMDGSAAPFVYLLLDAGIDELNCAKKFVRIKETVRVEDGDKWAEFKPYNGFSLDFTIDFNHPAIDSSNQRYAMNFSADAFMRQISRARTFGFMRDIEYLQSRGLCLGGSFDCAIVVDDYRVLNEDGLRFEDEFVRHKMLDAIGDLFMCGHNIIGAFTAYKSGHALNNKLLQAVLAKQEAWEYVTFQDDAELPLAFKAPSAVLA
Protocol: In order to determine the inhibitory activities of the compounds of interest toward E. coli LpxC, a fluorescence-based enzyme assay was deployed, in which the formed deacetylated natural product UDP-3-O-[(R)-3-hydroxymyristoyl]glucosamine (2) is transformed into a fluorescent isoindole with o-phthaldialdehyde and 2-mercaptoethanol.[48],[49] […] The KM of E. coli LpxC C63A was determined experimentally using a mass spectrometry-based LpxC assay (Figure S8, Supporting Information, vide infra).
A fluorescence-based microplate assay for LpxC activity was performed as described by Clements et al.[48] The wells in a black, nonbinding, 96-well fluorescence microplate (Greiner Bio One, Frickenhausen) were filled with 93 μL of 26.9 μM UDP-3-O-[(R)-3-hydroxymyristoyl]-N-acetylglucosamine in assay buffer [40 mM sodium morpholinoethanesulfonic acid (pH 6.0), 80 μM dithiothreitol, 0.02% Brij 35]. In order to assay the inhibitors at final concentrations from 20 nM up to 20 μM, 2 μL of a respective dilution of the compounds in DMSO were added. The addition of 5 μL of a solution of purified LpxC (10 μg mL^–1) in assay buffer led to final concentrations of 25 μM UDP-3-O-[(R)-3-hydroxymyristoyl]-N-acetylglucosamine, 15 nM E. coli LpxC C63A, 2% DMSO, and from 20 nM up to 20 μM inhibitor. The microplate was incubated for 30 min at 37 °C in a plate shaker. Then, the biochemical reaction was stopped by adding 40 μL of 0.625 M sodium hydroxide. The reaction mixture was further incubated for 10 min and neutralized by adding 40 μL of 0.625 M acetic acid. The deacetylated product UDP-3-O-[(R)-3-hydroxymyristoyl]glucosamine was converted into a fluorescing isoindole by adding 120 μL of an o-phthaldialdehyde-2-mercaptoethanol solution, which was prepared by dissolving 10 mg of o-phthaldialdehyde in 1 mL of methanol, diluting the mixture with 24 mL of a sodium borate buffer (0.1 M), and finally adding 2.5 μL of 2-mercaptoethanol.[49] Fluorescence was measured with a TriStar^2 S LB 942 plate reader (Berthold, Bad Wildbad) at 340 nm excitation and 460 nm emission wavelengths. Each assay was performed at least three times on separate days. The IC50 values were calculated via Probit-log concentration graphs with the aid of the software Origin and were subsequently converted into Ki values using the Cheng–Prusoff equation.[75],[76]

P. aeruginosa ATCC 27853 = assay: disc diffusion assay; type: cell-based; details: 0.15 μmol per 6 mm disc
Protocol: (§5) In the performed disc diffusion assays, indole derivatives (S)-13h, (S)-13i, and (S)-13j caused promising halos of growth inhibition.
(§6) The disc diffusion assays against E. coli TOP10 (Thermo Fisher, Waltham, USA), E. coli ATCC 35218, K. pneumoniae ATCC 700603, and P. aeruginosa ATCC 27853 were performed as follows: the bacteria were grown overnight on a Columbia blood agar plate (Oxoid, Basingstoke, UK), and one colony was suspended in sterile saline to yield a suspension of 0.5 McFarland standard. Using a sterile swab, the suspension was spread evenly onto Mueller–Hinton agar (Oxoid, Basingstoke, UK). 0.15 μmol of each compound (dissolved in 10 μL DMSO) was applied onto circular 6 mm diameter filter paper disks, which were then placed on the agar. After incubating the agar plates for 20 h at 37 °C, the diameter of the zone of growth inhibition was measured for each compound.

E. coli ATCC 35218 = assay: disc diffusion assay; type: cell-based; details: 0.15 μmol per 6 mm disc
Protocol: as §5, §6

E. coli TOP10 = assay: disc diffusion assay; type: cell-based; details: 0.15 μmol per 6 mm disc
Protocol: as §5, §6

[5] = system: K. pneumoniae ATCC 700603; assay: disc diffusion assay; type: cell-based, Klebsiella pneumoniae; details: 0.15 μmol per 6 mm disc
Protocol: as §5, §6

Row | Structure (SMILES) | Inhibition zone E. coli D22 (E. coli D22 [1]) [mm] | Inhibition zone E. coli BL21(DE3) (E. coli BL21(DE3) [2]) [mm] | MIC (E. coli D22 [3]) [µg/mL] | MIC (E. coli BL21(DE3) [4]) [µg/mL] | IC50 (LasB) [nM] | inhibition at 20 µM (LasB) [%] | fold higher LpxC inhibitory activity than its enantiomer (eudysmic ratio) (E. coli LpxC C63A) [fold] | Ki (E. coli LpxC C63A) | Inhibition zone P. aeruginosa ATCC 27853 (P. aeruginosa ATCC 27853) [mm] | Inhibition zone E. coli ATCC 35218 (E. coli ATCC 35218) [mm] | Inhibition zone E. coli TOP 10 (E. coli TOP10) [mm] | Inhibition zone K. pneumoniae ATCC 700603 [5] [mm] | LasB Inhibition at 20 μM (LasB) | MIC E. coli BL21(DE3) (E. coli BL21(DE3) [4]) [µg/mL]
1 | O=C(NO)[C@H](COCc1ccccc1)OCc1ccc(C#Cc2ccc(CN3CCOCC3)cc2)cc1 [(S)-11a, (S)-3-(Benzyloxy)-N-hydroxy-2-[(4-{[4-(morpholinomethyl)phenyl]ethynyl}benzyl)oxy]propanamide] | 15.4 ± 2.4 | ≤6 | 0.5 (≈ 0.999 µM) | > 32 | 14300 ± 900 | 62.3 ± 3.2 | 6 | 606 ± 356 nM | – | – | – | – | – | –
2 | O=C(NO)[C@H](CNCc1ccccc1)OCc1ccc(C#Cc2ccc(CN3CCOCC3)cc2)cc1 [(S)-12a, (S)-3-(Benzylamino)-N-hydroxy-2-[(4-{[4-(morpholinomethyl)phenyl]ethynyl}benzyl)oxy]propanamide] | 24.3 ± 2.1 | 13.0 ± 1.0 | 0.5 (≈ 1 µM) | 16 (≈ 32 µM) | 21900 ± 1200 | 57 ± 2 | – | 4590 ± 1260 nM | – | – | – | – | – | –
3 | O=C(NC[C@H](OCc1ccc(C#Cc2ccc(CN3CCOCC3)cc2)cc1)C(=O)NO)c1ccccc1 [(S)-13a, (S)-N-{3-(Hydroxyamino)-2-[(4-{[4-(morpholinomethyl)phenyl]ethynyl}benzyl)oxy]-3-oxopropyl}benzamide] | 26.3 ± 1.5 | 15.7 ± 1.6 | 0.13 (≈ 0.253 µM) | 8 (≈ 15.6 µM) | – | 20.1 ± 3.9 | 17 | 150 nM and 149 nM | 7.0 ± 1.0 | 19.3 ± 0.6 | 23.3 ± 0.6 | 7.0 ± 1.0 | – | –
4 | O=C(NC[C@H](OCc1ccc(C#Cc2ccc(CN3CCOCC3)cc2)cc1)C(=O)NO)c1cccc(-c2ccccc2)c1 [(S)-13c] | 19.0 ± 1.5 | ≤6 | 0.13 (≈ 0.22 µM) | > 16 | – | < 10 | – | 42 nM and 41.5 nM | 6.3 ± 0.6 | 7.7 ± 1.5 | 8.0 ± 0 | <6 | little to no inhibitory activity | –
5 | O=C(NC[C@H](OCc1ccc(C#Cc2ccc(CN3CCOCC3)cc2)cc1)C(=O)NO)c1ccc(Oc2ccccc2)cc1 [(S)-13d] | 9.3 ± 1.6 | ≤6 | 0.25 (≈ 0.413 µM) | > 16 | – | < 10 | – | 323 ± 126 nM | 6.3 ± 0.6 | 7.0 ± 1.0 | <6 | <6 | little to no inhibitory activity | –
6 | O=C(NC[C@H](OCc1ccc(C#Cc2ccc(CN3CCOCC3)cc2)cc1)C(=O)NO)c1ccc2ccccc2n1 [(S)-13e] | 16.0 ± 2.5 | ≤6 | 0.25 (≈ 0.443 µM) | > 16 | – | 11.6 ± 1.9 | – | 377 ± 83 nM | 6.3 ± 0.6 | 7.7 ± 1.5 | 8.0 ± 0 | <6 | little to no inhibitory activity | –
7 | O=C(NC[C@H](OCc1ccc(C#Cc2ccc(CN3CCOCC3)cc2)cc1)C(=O)NO)c1cnc2ccccc2c1 [(S)-13f] | 29.0 ± 1.0 | 11.5 ± 2.1 | 0.25 (≈ 0.443 µM) | > 16 | – | < 10 | – | 117 ± 21 nM | <6 | 15.0 ± 0 | 18.0 ± 6.0 | <6 | little to no inhibitory activity | –
8 | O=C(NC[C@H](OCc1ccc(C#Cc2ccc(CN3CCOCC3)cc2)cc1)C(=O)NO)c1cc2ccccc2[nH]1 [(S)-13g] | 23.0 ± 1.0 | 10.0 ± 1.0 | 0.063 (≈ 0.114 µM) | 4 to 8 (≈ 7.24 to 14.5 µM) | – | < 10 | – | 87 ± 58.5 nM | <6 | 10.7 ± 0.6 | 16.0 ± 6.1 | <6 | little to no inhibitory activity | 8.0 (≈ 14.5 µM)
9 | O=C(NC[C@H](OCc1ccc(C#Cc2ccc(CN3CCOCC3)cc2)cc1)C(=O)NO)c1cccc2[nH]ccc12 [(S)-13i] | >30 | 20.4 ± 1.6 | 0.031 (≈ 0.0561 µM) | – | – | 27.6 ± 2.9 | – | 15.3 ± 3.6 nM | 6.3 ± 0.6 | 17.0 ± 3.5 | 23.0 ± 1.0 | 7.3 ± 1.2 | little to no inhibitory activity | –
10 | O=C(NO)[C@H](CN(Cc1ccccc1)Cc1ccccc1)OCc1ccc(C#Cc2ccc(CN3CCOCC3)cc2)cc1 [(S)-37, (S)-3-(Dibenzylamino)-N-hydroxy-2-[(4-{[4-(morpholinomethyl)phenyl]ethynyl}benzyl)oxy]propanamide] | 7.7 ± 1.2 | ≤6 | 16 (≈ 27.1 µM) | > 16 | – | < 10 | – | > 2540 nM | – | – | – | – | no inhibitory activity | –
